Experimental data taken from PubChem BioAssay AID330 (DTP/NCI, 2004).
“And” between values parts separate entries of the source, which are not always exact repeats. Equal entries are not always repeated. Toxic doses and inconclusive results are not listed. Rule for the calls: active = survival T/C of 150% or more; inactive = T/C below 125% in these data. Peptide text beside a SMILES is read from it.

System: P388 leukemia ip, CD2F1 mice, survival T/C
Test: NCI In Vivo Anticancer Drug Screen. Data for tumor model P388 Leukemia (intraperitoneal) in CD2F1 (CDF1) mice
Conditions: endpoint: median survival time, higher = longer survival
How it was run: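 Mice carrying the transplanted tumor received test compound or vehicle. Survival was recorded in each group, and the value is the treated-group measurement divided by that of the vehicle-treated control group.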

[1] = dose: 12.5 mg/kg/injection, schedule: Q01DX009 (ip), vehicle: saline with Tween-80
[2] = dose: 25.0 mg/kg/injection, schedule: Q01DX009 (ip), vehicle: saline with Tween-80
[3] = dose: 50.0 mg/kg/injection, schedule: Q01DX009 (ip), vehicle: saline with Tween-80
[4] = dose: 100.0 mg/kg/injection, schedule: Q01DX009 (ip), vehicle: saline with Tween-80
[5] = dose: 50.0 mg/kg/injection, schedule: Q01DX005 (ip), vehicle: Klucel (hydroxypropylcellulose) (HPC)
[6] = dose: 100.0 mg/kg/injection, schedule: Q01DX005 (ip), vehicle: Klucel (hydroxypropylcellulose) (HPC)
[7] = dose: 100.0 mg/kg/injection, schedule: Q04DX002 (ip), vehicle: saline with Tween-80
[8] = dose: 200.0 mg/kg/injection, schedule: Q04DX002 (ip), vehicle: saline with Tween-80
[9] = dose: 400.0 mg/kg/injection, schedule: Q04DX002 (ip), vehicle: saline with Tween-80
[10] = dose: 200.0 mg/kg/injection, schedule: Q01DX009 (ip), vehicle: saline with Tween-80
[11] = dose: 50.0 mg/kg/injection, schedule: Q01DX009 (ip), vehicle: saline
[12] = dose: 100.0 mg/kg/injection, schedule: Q01DX009 (ip), vehicle: saline
[13] = dose: 200.0 mg/kg/injection, schedule: Q01DX009 (ip), vehicle: saline
[14] = dose: 3.13 mg/kg/injection, schedule: Q01DX009 (ip), vehicle: saline with Tween-80
[15] = dose: 6.25 mg/kg/injection, schedule: Q01DX009 (ip), vehicle: saline with Tween-80
[16] = dose: 12.5 mg/kg/injection, schedule: Q01DX009 (ip), vehicle: saline
[17] = dose: 25.0 mg/kg/injection, schedule: Q01DX009 (ip), vehicle: saline
[18] = dose: 50.0 mg/kg/injection, schedule: Q01DX005 (ip), vehicle: saline with Tween-80
[19] = dose: 100.0 mg/kg/injection, schedule: Q01DX005 (ip), vehicle: saline with Tween-80
[20] = dose: 200.0 mg/kg/injection, schedule: Q01DX005 (ip), vehicle: saline with Tween-80
[21] = dose: 60.0 mg/kg/injection, schedule: Q01DX005 (ip), vehicle: saline with Tween-80
[22] = dose: 120.0 mg/kg/injection, schedule: Q01DX005 (ip), vehicle: saline with Tween-80
[23] = dose: 240.0 mg/kg/injection, schedule: Q01DX005 (ip), vehicle: saline with Tween-80
[24] = dose: 200.0 mg/kg/injection, schedule: Q01DX005 (ip), vehicle: Klucel (hydroxypropylcellulose) (HPC)

Measured: T/C

C#CCOc1ccc(Cl)cc1[N+](=O)[O-]
inactive: dose: 50.0 mg/kg/injection, schedule: Q01DX009 (ip), vehicle: Klucel (hydroxypropylcellulose) (HPC) 100 % of control | dose: 100.0 mg/kg/injection, schedule: Q01DX009 (ip), vehicle: Klucel (hydroxypropylcellulose) (HPC) 99 % of control | dose: 200.0 mg/kg/injection, schedule: Q01DX009 (ip), vehicle: Klucel (hydroxypropylcellulose) (HPC) 104 % of control

C1CC[N-]CC1.CC(=N\O)/C(C)=N/O.CC(=N\O)/C(C)=N/O.N#C[CH-]CC#N.[Co+2]
inactive: [1] 91 % of control | [2] 96 % of control | [3] 97 % of control | [4] 92 % of control

Cc1ccc(C2=C(C#N)C(c3ccccc3)C(C#N)=C(N)O2)cc1 (centres undefined)
inactive: [5] 97 % of control | [6] 95 % of control

NC(=O)C(O)C1OC(COCc2ccccc2)C(OCc2ccccc2)C1OCc1ccccc1 (centres undefined)
inactive: dose: 12.5 mg/kg/injection, schedule: Q01DX009 (ip), vehicle: distilled water + Tween-80 90 % of control and 104 % of control | dose: 25.0 mg/kg/injection, schedule: Q01DX009 (ip), vehicle: distilled water + Tween-80 92 % of control and 95 % of control | dose: 50.0 mg/kg/injection, schedule: Q01DX009 (ip), vehicle: distilled water + Tween-80 106 % of control and 100 % of control | dose: 100.0 mg/kg/injection, schedule: Q01DX009 (ip), vehicle: distilled water + Tween-80 100 % of control and 89 % of control | dose: 200.0 mg/kg/injection, schedule: Q01DX009 (ip), vehicle: distilled water + Tween-80 104 % of control and 97 % of control

C=Cn1c([N+](=O)[O-])cnc1/C=C/c1ccc(C(=O)N(CCCC)CCCC)cc1
inactive: [7] 100 % of control | [8] 100 % of control | [9] 89 % of control

CCOC(CN=Cc1cc(C)c2oc3ccccc3c2c1C)OCC
inactive: [3] 100 % of control | [4] 100 % of control | [10] 95 % of control

[Cu+2].[NH-]C(=O)NC([NH-])=O.[NH-]C(=O)NC([NH-])=O
inactive: dose: 6.25 mg/kg/injection, schedule: Q01DX005 (ip), vehicle: saline with Tween-80 99 % of control | dose: 12.5 mg/kg/injection, schedule: Q01DX005 (ip), vehicle: saline with Tween-80 99 % of control

CC(C)(CO)C(O)C(=O)NCCCO (centres undefined)
inactive: [11] 103 % of control | [12] 98 % of control | [13] 100 % of control

CN1CCC(O)(/C=C\C2(O)CCN(C)CC2)CC1
inactive: dose: 100.0 mg/kg/injection, schedule: Q01DX001 (ip), vehicle: saline 96 % of control | dose: 200.0 mg/kg/injection, schedule: Q01DX001 (ip), vehicle: saline 89 % of control | dose: 400.0 mg/kg/injection, schedule: Q01DX001 (ip), vehicle: saline 107 % of control

OCCN(CCO)c1ccc2ccc(N(CCO)CCO)nc2n1
inactive: dose: 50.0 mg/kg/injection, schedule: Q04DX003 (ip), vehicle: Klucel (hydroxypropylcellulose) (HPC) 103 % of control | dose: 100.0 mg/kg/injection, schedule: Q04DX003 (ip), vehicle: Klucel (hydroxypropylcellulose) (HPC) 103 % of control | dose: 200.0 mg/kg/injection, schedule: Q04DX003 (ip), vehicle: Klucel (hydroxypropylcellulose) (HPC) 100 % of control

c1ccc(P2(c3ccccc3)(c3ccccc3)OCC3CC32)cc1 (centres undefined)
inactive: [14] 103 % of control | dose: 3.13 mg/kg/injection, schedule: Q01DX009 (ip), vehicle: saline 94 % of control | [15] 106 % of control | dose: 6.25 mg/kg/injection, schedule: Q01DX009 (ip), vehicle: saline 98 % of control | [1] 103 % of control and 124 % of control | [16] 95 % of control | [2] 100 % of control and 111 % of control | [17] 100 % of control | dose: 50.0 mg/kg/injection, schedule: Q01DX009 (ip), vehicle: olive oil, sesame oil, peanut oil 95 % of control | [3] 102 % of control

CC(C)C(NC(=O)C(N)CCC(=O)O)C(=O)O (stereo not drawn) (H-Glu-Val-OH; configuration not given here)
inactive: [18] 93 % of control | [19] 100 % of control | [20] 93 % of control

O=C(CN1CCCCC1)Nc1ccc(Br)cc1
inactive: [3] 106 % of control | [11] 103 % of control and 113 % of control | [4] 100 % of control | [12] 105 % of control | [10] 111 % of control | [13] 120 % of control | dose: 400.0 mg/kg/injection, schedule: Q01DX009 (ip), vehicle: saline with Tween-80 102 % of control

CC(C)(C)OOC(=O)/C=C/c1ccccc1
inactive: [21] 101 % of control | [22] 108 % of control | [23] 92 % of control

c1ccc(C2NCCc3ccccc32)cc1 (centres undefined)
inactive: [5] 97 % of control | [6] 105 % of control | [24] 100 % of control

CC(=O)NNC(=O)C(Cl)Cl
inactive: [16] 92 % of control | [17] 89 % of control | [11] 101 % of control and 90 % of control

CC(=O)Nc1cc(N2CCCCC2)c(N)c2c1C(=O)c1ccccc1C2=O
inactive: [5] 102 % of control | [6] 97 % of control | [24] 98 % of control

O=c1c(Cl)c(Cl)oc(Cl)c1Cl
inactive: [18] 100 % of control | [19] 98 % of control

CCOC(=O)C1=C(C)/C(=C\c2[nH]c(C)c(C(=O)OCC)c2C)N=C1C
inactive: [21] 103 % of control | [22] 94 % of control | [23] 96 % of control

CC[N+]12CC=C(CO)C1C(O)CC2 (centres undefined)
inactive: dose: 60.0 mg/kg/injection, schedule: Q01DX005 (ip), vehicle: saline 97 % of control | dose: 120.0 mg/kg/injection, schedule: Q01DX005 (ip), vehicle: saline 95 % of control | dose: 240.0 mg/kg/injection, schedule: Q01DX005 (ip), vehicle: saline 106 % of control

CCCCCCCCCCCCCCCc1cccc(OC)c1C(=O)OC
inactive: dose: 20.0 mg/kg/injection, schedule: Q01DX009 (ip), vehicle: saline 109 % of control | dose: 40.0 mg/kg/injection, schedule: Q01DX009 (ip), vehicle: saline 106 % of control | dose: 80.0 mg/kg/injection, schedule: Q01DX009 (ip), vehicle: saline 104 % of control

NC(=O)CCCCO
inactive: dose: 100.0 mg/kg/injection, schedule: Q04DX003 (ip), vehicle: saline 102 % of control | dose: 200.0 mg/kg/injection, schedule: Q04DX003 (ip), vehicle: saline 102 % of control | dose: 400.0 mg/kg/injection, schedule: Q04DX003 (ip), vehicle: saline 109 % of control

Cc1c2oc3c(C)ccc(C(=O)OCCN4CCOCC4)c3nc-2c(C(=O)OCCN2CCOCC2)c(N)c1=O
inactive: [14] 112 % of control | [15] 110 % of control | [1] 119 % of control | [2] 111 % of control

CN(C)c1ccc(/C=C2\C=Cc3ccccc32)cc1
inactive: dose: 100.0 mg/kg/injection, schedule: Q04DX003 (ip), vehicle: saline with Tween-80 109 % of control | dose: 200.0 mg/kg/injection, schedule: Q04DX003 (ip), vehicle: saline with Tween-80 90 % of control | dose: 400.0 mg/kg/injection, schedule: Q04DX003 (ip), vehicle: saline with Tween-80 90 % of control

COC1C(CN(C)N=Nc2ccccc2C(N)=O)OC2OC(C)(C)OC21 (centres undefined)
inactive: [7] 94 % of control | [8] 91 % of control | [9] 91 % of control

Cn1c(=O)c2[nH]c(Cl)nc2n(CCCl)c1=O
inactive: [1] 100 % of control and 88 % of control | [2] 89 % of control and 98 % of control | [3] 102 % of control and 95 % of control | [4] 104 % of control and 109 % of control

CC(=O)N/C(=C\c1ccccc1)C(=O)NC(C)C(=O)O (centres undefined)
inactive: [18] 89 % of control | [19] 92 % of control | [20] 86 % of control
